Earlier results in US20040171518A1, “Compounds for protein stabilization and methods for their use” (Medtronic MiniMed, Inc., priority 2003, published 2004).
Where two headings read alike, the source gives them in different places.

O=C(O)CCC(=O)NCCCCC1NC(=O)C(CCCCNC(=O)CCC(=O)O)NC1=O (centres unmarked) [2,5-diketo-3,6-di(4-succinylaminobutyl)piperazine]
solubility (acidic aqueous solutions): quite insoluble
solubility (weakly alkaline aqueous solution): readily soluble
